For assay [1], the target named is T1, E3 ubiquitin-protein ligase Mdm2 (Homo sapiens, UniProt Q00987). As to the kind of experiment: Inhibition of biotin-labelled p53 binding to MDM2 (25 to 109 residues) (unknown origin) by surface plasmon resonance method.
Assay [2] deals with T1, E3 ubiquitin-protein ligase Mdm2. As to the kind of experiment: Inhibition of biotin-labelled P4 peptide binding to MDM2 (25 to 109 residues) (unknown origin) by surface plasmon resonance method.
Target sequence in this assay (Q00987 whole entry, the tested form may be a part): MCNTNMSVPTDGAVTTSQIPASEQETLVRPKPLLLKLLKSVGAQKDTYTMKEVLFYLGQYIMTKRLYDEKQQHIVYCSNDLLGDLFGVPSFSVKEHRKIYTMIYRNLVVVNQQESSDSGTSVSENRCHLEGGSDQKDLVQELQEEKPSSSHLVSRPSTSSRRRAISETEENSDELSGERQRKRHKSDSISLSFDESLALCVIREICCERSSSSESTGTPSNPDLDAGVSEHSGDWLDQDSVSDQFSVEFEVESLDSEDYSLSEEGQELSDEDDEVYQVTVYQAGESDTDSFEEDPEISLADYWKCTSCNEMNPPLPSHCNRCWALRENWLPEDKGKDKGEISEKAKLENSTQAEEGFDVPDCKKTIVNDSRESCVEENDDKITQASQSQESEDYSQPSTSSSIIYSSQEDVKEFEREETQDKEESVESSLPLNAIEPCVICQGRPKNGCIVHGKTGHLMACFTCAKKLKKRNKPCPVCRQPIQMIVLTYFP
Assay [3] shares this target. In words: Binding affinity to MDM2 (25 to 109 residues) (unknown origin) assessed as adduct formation at 10 uM after 10 mins by MALDI-TOF MS analysis.
Target sequence in this assay (Q00987 whole entry, looked up, the tested form may be a part): as the sequence (Q00987 whole entry, the tested form may be a part) above
Assay [4] can be described thus: Inhibition of biotin-labelled P4 peptide binding to MDM2 Ser77 mutant (unknown origin) by surface plasmon resonance method. Set-up: species or system Homo sapiens.
The species entered for the next assay is Homo sapiens. As to the kind of experiment: Binding affinity to MDM2 Cys(Me)77 mutant (unknown origin) assessed as adduct formation at 10 uM after 10 mins by MALDI-TOF-MS analysis.
Assay [5] in a line: Inhibition of biotin-labelled P4 peptide binding to MDM2 Cys(Me)77 mutant (unknown origin) by surface plasmon resonance method. The arrangement: species or system Homo sapiens.
A short description of assay [6]: Drug level in 1:1 PBS/CH3CN mixture treated with R-(-)-apomorphine at 10 mM measured after 24 hrs by HPLC method.
For assay [7], the target named is T1, E3 ubiquitin-protein ligase Mdm2. As to the kind of experiment: Inhibition of biotin-labelled L-p53 binding to L-MDM2 (25 to 109 residues) (unknown origin) by FAM labeled P4 peptide based fluorescence polarization assay.
Target sequence in this assay (Q00987 whole entry, the tested form may be a part): as above
Assay [8] in a line: Inhibition of biotin-labelled p53 binding to MDM2 Ser77 mutant (unknown origin) by surface plasmon resonance method. Set-up: species or system Homo sapiens.
In assay [9] the target is T1, E3 ubiquitin-protein ligase Mdm2. As to the kind of experiment: Inhibition of biotin-labelled D-p53 binding to D-MDM2 (25 to 109 residues) (unknown origin) by FAM labeled P4 peptide based fluorescence polarization assay.
Target sequence in this assay (Q00987 whole entry, looked up, the tested form may be a part): as the sequence (Q00987 whole entry, the tested form may be a part) above

pIC50: −log10 of the molar value. Calls of active or inactive are those of the source. The rule behind the calls is not given here.

Turning to `Oc1ccccc1O` [CATECHOL], the pIC50 in [1] is below 4.00.

As to `CN1CCc2cccc3c4c(cc1c23)C=CC(=O)C4=O`, the pIC50 is 5.77 in [2], below 4.52 in [4] and below 4.52 in assay [5]. The result in assay [3] was inactive. The result in the assay filed under Homo sapiens was Active. The inhibition result in assay [1] was “Active”. Moreover, in assay [6], the Drug metabolism result is on record as “Metabolite detected”.

In [7], `CN1CCc2cccc3c2[C@@H]1Cc1ccc(O)c(O)c1-3` [(S)APOMORPHINE] had a pIC50 of 6.76.

As to `O=C1C=CC(=O)C=C1` [BENZOQUINONE], the pIC50 is below 4.00 in assay [8] and 4.86 in assay [1].

With `CN1CCc2cccc3c2[C@H]1Cc1ccc(O)c(O)c1-3` [APOMORPHINE], the pIC50 is 6.67 in assay [7]; below 4.52 in assay [2]; below 4.52 in assay [4]; 6.71 in assay [9]; below 4.52 in [5]. Besides, in assay [1], the inhibition result was “inactive”.

The values above are taken from ChEMBL document CHEMBL4017461, “Investigation of the inhibitory mechanism of apomorphine against MDM2-p53 interaction” (Bioorg Med Chem Lett, 2017).
